The record followed here is patent US20040242871A1, “Novel arylheteroalkylamine derivatives” (priority 2001, published 2004).

Usually melting point stands for the temperature of the solid-liquid transition.

Take `COc1cc(S[C@H](C[C@H](N)CO)c2ccccc2)c(C#N)cn1` [Example 10, 4-[[(1R,3S)-3-Amino-4-hydroxy-1-phenylbutyl-]thio]-6-methoxy-3-pyridinecarbonitrile (E)-butenedioate]: the melting point lay in the range of 172 to 173 °C.
Compound `COc1cc(S[C@H](C[C@@H](N)CO)c2ccccc2)c(C#N)cn1.O=C(O)/C=C/C(=O)O` [Example 11, 4-[[(1R,3R)-3-Amino-4-hydroxy-1-phenylbutyl]thio]-6-methoxy-3-pyridinecarbonitrile (E)-butenedioate] registered a melting point of 221 to 223 °C.
The same measure for `COc1cc(S[C@@H](C[C@@H](N)CO)c2ccccc2)c(C#N)cn1.O=C(O)/C=C/C(=O)O` [Example 12, 4-[[(1S,3R)-3-Amino-4-hydroxy-1-phenylbutyl]thio]-6-methoxy-3-pyridinecarbonitrile, (E)-butenedioate]: 162.5 to 163 °C.
In the case of `COc1cc(S[C@@H](C[C@H](N)CO)c2ccccc2)c(C#N)cn1.O=C(O)/C=C/C(=O)O` [Example 13, 4-[[(1S,3S)-3-Amino-4-hydroxy-1-phenylbutyl]thio]-6-methoxy-3-pyridinecarbonitrile (E)-butenedioate] it was 213 to 228 °C; in that of `N#Cc1cnc(OC(F)F)cc1S[C@H](C[C@H](N)CO)c1ccccc1.O=C(O)/C=C/C(=O)O` [Example 14, 4-[[(1R,3S)-3-Amino-4-hydroxy-1-phenylbutyl]thio]-6-(difluoromethoxy)-3-pyridinecarbonitrile (E)-butenedioate], 144 to 146 °C; in that of `CC(=O)c1ccc(C#N)c(S[C@H](C[C@H](N)CO)c2ccccc2)n1.Cl` [Example 20, 6-Acetyl-2-[[(1R,3S)-3-amino-4-hydroxy-1-phenylbutyl]thio]-3-pyridinecarbonitrile Hydrochloride], 78 °C.
In the case of `N#Cc1ccc(CO)nc1S[C@H](C[C@H](N)CO)c1ccccc1.O=C(O)/C=C/C(=O)O` [Example 21, 2-[[(1R,3S)-3-Amino-4-hydroxy-1-phenylbutyl]thio]-6-(hydroxymethyl)-3-pyridinecarbonitrile (E)-butenedioate] it was 147 to 149 °C; in that of `N#Cc1cccnc1S[C@H](C[C@H](N)CO)c1ccccc1.O=C(O)/C=C/C(=O)O` [Example 22, 2-[[(1R,3S)-3-Amino-4-hydroxy-1-phenylbutyl]thio]-3-pyridinecarbonitrile (E)-butenedioate], 67 to 69 °C.
`CNc1cc(S[C@H](C[C@H](N)CO)c2ccccc2)c(C#N)cn1.Cl.Cl` [Example 26, 4-[[(1R,3S)-3-Amino-4-hydroxy-1-phenylbutyl]thio]-6-(methylamino)-3-pyridinecarbonitrile dihydrochloride] gave a melting point of 206 to 208 °C.
For the compound `COc1cc(S[C@H](C[C@H](N)CO)c2ccccc2)c(Br)cn1` [Example 27, (β^1S,β^1R)-β-Amino-δ-[(5-bromo-2-methoxy-4-pyridinyl)thio]-benzenebutanol (E)-2-butenedioate], the melting point fell in the range of 178 to 180 °C.
Compound `COc1cc(S[C@H](C[C@H](N)CO)c2ccccc2)c(Cl)cn1` [Example 28, (β^1S,β^1R) β-Amino-δ-[(5-chloro-2-methoxy-4-pyridinyl)thio]-benzenebutanol (E)-2-butenedioate] showed a melting point of 191 to 193 °C.
The compound `CCOc1cc(S[C@H](C[C@H](N)CO)c2ccccc2)c(C#N)cn1` [Example 29, 4-[[(1R,3S)-3-Amino-4-hydroxy-1-phenylbutyl]thio]-6-ethoxy-3-pyridinecarbonitrile. (E)-butenedioate] gave a melting point of 169.5 to 171.5 °C.
The same measure for `N#Cc1ncc(C(F)(F)F)cc1S[C@H](C[C@H](N)CO)c1ccccc1.O=C(O)C(=O)O` [Example 30, 3-[[(1R,3S)-3-Amino-4-hydroxy-1-phenylbutyl]thio]-5-(trifluoromethyl)-2-pyridinecarbonitrile ethanedioate]: 147 to 149 °C; for `COc1cc(S[C@H](C[C@H](N)CO)c2ccccc2F)c(C#N)cn1.O=C(O)C(=O)O` [Example 35, 4-[[(1R,3S)-3-Amino-1-(2-fluorophenyl)-4-hydroxybutyl]thio]-6-methoxy-3-pyridinecarbonitrile ethanedioate]: 179 to 185 °C.
The same measure for `N#Cc1ccc(C(F)(F)F)nc1O[C@H](C[C@H](N)CO)c1ccc(F)cc1.O=C(O)C(=O)O` [Example 36, 2-[[(1R,3S)-3-Amino-1-(4-fluorophenyl)-4-hydroxybutyl]oxy]-6-trifluoromethyl-3-pyridinecarbonitrile ethanedioate]: 109 to 114 °C; for `N#Cc1ccc(S[C@H](C[C@H](N)CO)c2ccccc2)c(Cl)c1.O=C(O)C(=O)O` [Example 43, 4-[[(1R,3S)-3-Amino-4-hydroxy-1-phenylbutyl]thio]-3-chlorobenzonitrile ethanedioate]: 142 to 144 °C.
The same measure for `CCN[C@H](CO)C[C@@H](Oc1cc(Cl)c(F)cc1C#N)c1nccs1.O=C(O)C(=O)O` [Example 44, 4-Chloro-2-[[(1R,3S)-3-(ethylamino)-4-hydroxy-1-(2-thiazolyl)butyl]oxy]-5-fluoro-benzonitrile ethanedioate salt]: 55 to 80 °C; for `N#Cc1cc(F)ccc1O[C@H](C[C@H](N)CO)c1cncs1.O=C(O)/C=C/C(=O)O` [Example 45, 2-[[(1R,3S)-3-Amino-4-hydroxy-1-(5-thiazolyl)butyl]oxy]-5-fluoro-benzonitrile (2E)-2-butenedioate]: 163 to 165 °C; for `CC(C)(O)[C@@H](N)C[C@@H](Oc1cc(Cl)c(F)cc1C#N)c1ccccc1.O=C(O)C(=O)O` [Example 47, 2-[[(1R,3S)-3-Amino-4-hydroxy-4-methyl-1-phenylpentyl]oxy]-4-chloro-5-fluoro benzonitrile ethanedioate]: 80 °C.
The compound `CCC[C@@H](C[C@H](N)CO)Oc1cc(Cl)c(F)cc1C#N.O=C(O)C(=O)O` [Example 48, 2-[[(1S,3S)-3-Amino-4-hydroxy-1-propylbutyl]oxy]-4-chloro-5-fluorobenzonitrile ethanedioate] registered a melting point of 171 to 172 °C.
The same measure for `Cc1ccc(C#N)c(SC(C[C@H](N)CO)c2ccno2)n1.O=C(O)/C=C/C(=O)O` (stereo partly drawn) [Example 51, 2-[[(3S)-3-Amino-4-hydroxy-1-(5-isoxazolyl)butyl]thio]-6-methyl-3-pyridinecarbonitrile (E)-butenedioate]: 150 to 152 °C.
The same measure for `N#Cc1ccc(C(F)(F)F)nc1OC(C[C@H](N)CO)c1ccno1.O=C(O)/C=C/C(=O)O` (stereo partly drawn) [Example 52, 2-[[(3S)-3-Amino-4-hydroxy-1-(5-isoxazolyl)butyl]oxy]-6-(trifluoromethyl)-3-pyridinecarbonitrile, (E)-butenedioate]: 150 to 152 °C.
In the case of `N#Cc1cc(F)c(Cl)cc1O[C@H](C[C@H](N)CO)c1ccsc1.O=C(O)C(=O)O` [Example 54, 2-[[3-(3S)-Amino-4-hydroxy-1(R)-(3-thienyl)butyl]oxy]-4-chloro-5-fluorobenzonitrile ethanedioate] it was 111 to 115 °C; in that of `Cl.Cl.N#Cc1ccc(C(F)(F)F)cc1S[C@H](C[C@H](N)CO)c1cccnc1` [Example 55, 2-[[(1R,3S)-3-Amino-4-hydroxy-1-(3-pyridinyl)butyl]thio]-4-(trifluoromethyl)benzonitrile dihydrochloride], 238 to 240 °C.
Regarding `Cl.N#Cc1ccc(Cl)cc1S[C@H](C[C@H](N)CO)c1cncnc1` [Example 56, 2-[[(1R,3S)-3-Amino-4-hydroxy-1-(5-pyrimidyl)butyl]thio]-4-chlorobenzonitrile hydrochloride], the melting point was 120 to 130 °C.
In the case of `Cl.Cl.N#Cc1cc(F)c(Cl)cc1S[C@H](C[C@H](N)CO)c1cccnc1` [Example 57, 2-[[(1R,3S)-3-Amino-4-hydroxy-1-(3-pyridinyl)butyl]thio]-4-chloro-5-fluorobenzonitrile dihydrochloride] it was 252 to 255 °C.
In turn, `Cl.Cl.N#Cc1ccc(Br)cc1S[C@H](C[C@H](N)CO)c1cccnc1` [Example 58, 2-[[(1R,3S)-3-Amino-4-hydroxy-1-(3-pyridyl)butyl]thio]-4-bromobenzonitrile dihydrochloride] registered a melting point of 278 to 280 °C.
The compound `Cc1nc(O[C@H](C[C@H](N)CO)c2nccs2)c(C#N)cc1F.Cl` [Example 59, 2-[[(1R,3S)-3-Amino-4-hydroxy-1-(2-thiazolyl)butyl]oxy]-5-fluoro-6-methyl-3-pyridinecarbonitrile hydrochloride] registered a melting point of 148 to 150 °C.
The same measure for `COc1cc(S[C@H](C[C@H](N)CO)c2sccc2F)c(C#N)cn1.O=C(O)/C=C/C(=O)O` [Example 60, 4-[[(1R,3S)-3-Amino-1-(3-fluoro-2-thienyl)-4-hydroxybutyl]thio]-6-methoxy-3-pyridinecarbonitrile (E)-butenedioate salt]: 177 to 178 °C.
Regarding `N#Cc1cc(F)c(Cl)cc1O[C@H](C[C@H](N)CO)c1scnc1Cl.O=C(O)/C=C/C(=O)O` [Example 61, 2-[[(1R,3S)-3-Amino-1-(4-chloro-5-thiazolyl)-4-hydroxybutyl]oxy]-4-chloro-5-fluorobenzonitrile (E)-butenedioate salt], the melting point fell in the range of 177 to 178 °C.
